Reference: US5411984A, “Water soluble analogs and prodrugs of taxol” (Virginia Tech Intellectual Properties, Inc., priority 1992, dated 1995)
Counter-ions that a name gives are not always drawn. Values belong to the molecule of their own block, whether it stands above or below them.

Legend:
[1] = Deutsch et al.; cited from earlier work
[2] = test system: M109 lung carcinoma; assay: In vivo activity against M109 lung carcinoma implanted intraperitoneally (mice M109 model), median survival; set-up: species or system Balb/o x DBA/2 F1 hybrid mice
Method: Balb/o x DBA/2 F1 hybrid mice were implanted intraperitoneally, as described by William Rose in "Evaluation of Madison 109 Lung Carcinoma as a Model for Screening Antitumor Drugs, "Cancer Treatment Reports, 65 No. 3-4 (1981), with 0.5 mL of a 2% (w/v) brei of M109 lung carcinoma (the mice M109 model).
Mice were treated with a compound under study by receiving intraperitoneal injections of various doses on either Day 1, 5, and 9 post-tumor implant or Days 5 and 8 post-implant. Mice were followed daily for survival until approximately 75-90 days post-tumor implant. One group of mice per experiment remained untreated and served as the control group.
Median survival times of compound-treated (T) mice were compared to the median survival time of the control (C) mice. The ratio of the two values for each compound-treated group of mice was multiplied by 100 and expressed as a percentage (i.e.% T/C) in Table 2 for certain representative compounds.

[3] = cited from earlier work
[4] = test system: B16 melanoma cells; settings: compared with taxol; cited from earlier work
[5] = cited from earlier work; remark: listed apart in the source
[6] = cited from earlier work; remark: listed apart in the source
[7] = Stability in mildly basic aqueous solution; format: physicochemical
[8] = Stability in pH 5 buffer / mildly acidic aqueous solution (HPLC or TLC, onset of cloudiness); format: physicochemical; settings: room temperature
Method: **Stabilities were determined in pH 5 buffer solution by one of the two
methods indicated below.
(a) 9.5 mg of sample was dissolved in 0.2 ml of EtOH and 0.2 ml of pH 5
buffer solution and let stand at room temperature. The progress of
decomposition was checked by HPLC or TLC and observation of the onset of
(b) 0.5 mg of sample was dissolved in 0.1 ml of EtOH and 0.9 ml of pH 5
buffer solution, the other conditions were the same as in (a) above. All
samples were stable under these conditions for at least 24 hours. No
hydrolysis was detectable by HPLC or TLC during this time period.

[9] = Relative solubility by the 1-octanol and water partition method (UV absorption at 228 nm), taxol = 1
Method: In separate experiments, taxol derivative 4 and 2'-succinyl taxol (R=NaO2 CCH2 CH2 CO2) were dissolved in a mildly basic aqueous solution.
*Solubilities were determined by using the 1octanol and water partition
method.Sample concentrations in water were determined by UV absorptions a […]

[10] = test system: tubulin; settings: cited from earlier work
[11] = method (b): 0.5 mg in 0.1 ml EtOH and 0.9 ml pH 5 buffer
[12] = method (a): 9.5 mg in 0.2 ml EtOH and 0.2 ml pH 5 buffer

Molecule: CC(=O)O[C@H]1C(=O)[C@@]2(C)[C@H]([C@H](OC(=O)c3ccccc3)[C@]3(O)C[C@H](OC(=O)[C@H](OC(=O)CCCC(=O)NCCCN(C)C)[C@@H](NC(=O)c4ccccc4)c4ccccc4)C(C)=C1C3(C)C)[C@]1(OC(C)=O)CO[C@@H]1C[C@@H]2O
antitumor activity [1]: good solubility and bioactivity

Molecule: 2'-(4-benzyloxocarbonylbensoyl -7-(4-carboxybensoyl)taxol [Compound 17]
T/C ([2]; Q03Dx2;5, ip/ip, dose 13): 97%
T/C ([2]; Q03Dx2;5, ip/ip, dose 26): 100%
T/C ([2]; Q03Dx2;5, ip/ip, dose 52): 109%

Molecule: CC(=O)O[C@H]1C(=O)[C@]2(C)[C@@H](OC(C)=O)C[C@H]3OC[C@@]3(OC(C)=O)[C@H]2[C@H](OC(=O)c2ccccc2)[C@]2(O)C[C@H](OC(=O)[C@H](OC(C)=O)[C@@H](NC(=O)c3ccccc3)c3ccccc3)C(C)=C1C2(C)C [2',7-diacetyltaxol]
hydrolysis of acyl substituents under in vivo conditions [3]: readily hydrolyzed

Molecule: CC(=O)O[C@H]1C(=O)[C@@]2(C)[C@H]([C@H](OC(=O)c3ccccc3)[C@]3(O)C[C@H](OC(=O)[C@H](OC(=O)CN(C)C)[C@@H](NC(=O)c4ccccc4)c4ccccc4)C(C)=C1C3(C)C)[C@]1(OC(C)=O)CO[C@@H]1C[C@@H]2O [2'-(N,N-dimethylglycyl) taxol]
inhibition of proliferation of B16 melanoma cells relative to taxol [4]: to an extent similar to that of taxol

Molecule: CC(=O)O[C@H]1C(=O)[C@@]2(C)[C@H]([C@H](OC(=O)c3ccccc3)[C@]3(O)C[C@H](OC(=O)[C@H](OC(=O)CCC(=O)NCCCS(=O)(=O)O)[C@@H](NC(=O)c4ccccc4)c4ccccc4)C(C)=C1C3(C)C)[C@]1(OC(C)=O)CO[C@@H]1C[C@@H]2O [2'-([4-((3-sulfopropyl)amino-1,4-dioxobutyl]oxy)taxolsodium salt]
antineoplastic activity in mice [5]: active as antineoplastic agents in mice
aqueous solubility [6]: improved water-solubility as compared with taxol

Molecule: CC(=O)O[C@H]1C(=O)[C@@]2(C)[C@H]([C@H](OC(=O)c3ccccc3)[C@]3(O)C[C@H](OC(=O)[C@H](OC(=O)CCN(C)C)[C@@H](NC(=O)c4ccccc4)c4ccccc4)C(C)=C1C3(C)C)[C@]1(OC(C)=O)CO[C@@H]1C[C@@H]2O [2'-[3-(N,N-dimethylamino)propionyl]taxol]
inhibition of proliferation of B16 melanoma cells relative to taxol [4]: to an extent similar to that of taxol

Molecule: CC(=O)O[C@H]1C(=O)[C@@]2(C)[C@H]([C@H](OC(=O)c3ccccc3)[C@]3(O)C[C@H](OC(=O)[C@H](OC(C)=O)[C@@H](NC(=O)c4ccccc4)c4ccccc4)C(C)=C1C3(C)C)[C@]1(OC(C)=O)CO[C@@H]1C[C@@H]2O [2'-acetyltaxol]
hydrolysis of acyl substituents under in vivo conditions [3]: readily hydrolyzed

time until solution turned cloudy [7]: less than 24 hours
degraded at 24 h ([7]; read-out: decomposed): ~50%
Molecule: CC(=O)O[C@H]1C(=O)[C@@]2(C)[C@H]([C@H](OC(=O)c3ccccc3)[C@]3(O)C[C@H](OC(=O)[C@H](OC(=O)CCC(=O)O)[C@@H](NC(=O)c4ccccc4)c4ccccc4)C(C)=C1C3(C)C)[C@]1(OC(C)=O)CO[C@@H]1C[C@@H]2O [2'-succinyl taxol, 2'-succinyl taxol (R=NaO2 CCH2 CH2 CO2), reference compound]

Molecule: CC(=O)O[C@H]1C(=O)[C@@]2(C)[C@H]([C@H](OC(=O)c3ccccc3)[C@]3(O)C[C@H](OC(=O)[C@H](OC(=O)CCC(=O)NCCS(=O)(=O)O)[C@@H](NC(=O)c4ccccc4)c4ccccc4)C(C)=C1C3(C)C)[C@]1(OC(C)=O)CO[C@@H]1C[C@@H]2O [--O2 CCH2 CH2 CONHCH2 --CH2 SO3 Na, 2'-([4-((2-sulfoethyl)amino)-1,4-dioxobutyl]oxy)taxol sodium salt]
Stabilities at pH 5 [8, 11]: > 24 h
antineoplastic activity in mice [5]: active as antineoplastic agents in mice
aqueous solubility [6]: improved water-solubility as compared with taxol

Molecule: CC(=O)O[C@H]1C(=O)[C@@]2(C)[C@H]([C@H](OC(=O)c3ccccc3)[C@]3(O)C[C@H](OC(=O)[C@H](OC(=O)CCS(=O)(=O)O)[C@@H](NC(=O)c4ccccc4)c4ccccc4)C(C)=C1C3(C)C)[C@]1(OC(C)=O)CO[C@@H]1C[C@@H]2O [--O2 CCH2 CH2 SO3 Na, 2'-[(3-sulfo-1-oxopropyl)oxy]taxol sodium salt]
Stabilities at pH 5 [8, 11]: > 24 h
antineoplastic activity in mice [5]: active as antineoplastic agents in mice
aqueous solubility [6]: improved water-solubility as compared with taxol

Relative Solubility (p') [9]: 3
Stabilities at pH 5 [8, 12]: > 24 h
appearance of solution [7]: remained clear
extent of decomposition [7]: remained substantially intact
Molecule: CC(=O)O[C@H]1C(=O)[C@@]2(C)[C@H]([C@H](OC(=O)c3ccccc3)[C@]3(O)C[C@H](OC(=O)[C@H](OC(=O)c4ccccc4C(=O)O)[C@@H](NC(=O)c4ccccc4)c4ccccc4)C(C)=C1C3(C)C)[C@]1(OC(C)=O)CO[C@@H]1C[C@@H]2O [Compound 4, Taxol 2'-(sodium 1,2-benzenedicarboxylate)]
T/C ([2]; Q03Dx2;5, ip/ip, dose 15): 106%
T/C ([2]; Q03Dx2;5, ip/ip, dose 30): 135%
T/C ([2]; Q03Dx2;5, ip/ip, dose 60): 141%

Molecule: CC(=O)O[C@H]1C(=O)[C@@]2(C)[C@H]([C@H](OC(=O)c3ccccc3)[C@]3(O)C[C@H](OC(=O)[C@H](OC(=O)c4ccc(C(=O)O)cc4)[C@@H](NC(=O)c4ccccc4)c4ccccc4)C(C)=C1C3(C)C)[C@]1(OC(C)=O)CO[C@@H]1C[C@@H]2O [Compound 7, Taxol 2'-(sodium 1,4-benzenedioarboxylate)]
solubility relative to ortho benzoyl carboxylate derivative 4 ([9]; compared with 4): twice as soluble
Stabilities at pH 5 [8, 12]: > 24 h
T/C ([2]; Q03Dx2;5, ip/ip, dose 15): 112%
T/C ([2]; Q03Dx2;5, ip/ip, dose 30): 141%
T/C ([2]; Q03Dx2;5, ip/ip, dose 60): 141%
in vivo biological activity relative to derivative 4 ([2]; mice M109 model): superior in vivo biological activity

Molecule: CC(=O)O[C@H]1C(=O)[C@@]2(C)[C@H]([C@H](OC(=O)c3ccccc3)[C@]3(O)C[C@H](OC(=O)[C@H](OC(=O)c4cc(C(=O)O)cc(C(=O)O)c4)[C@@H](NC(=O)c4ccccc4)c4ccccc4)C(C)=C1C3(C)C)[C@]1(OC(C)=O)CO[C@@H]1C[C@@H]2O [Compound 8c, Taxol 2'-(disodium 1,3,5-benzenetricarboxylate)]
Stabilities at pH 5 [8, 11]: > 24 h

Relative Solubility (p') [9]: 96
Stabilities at pH 5 [8, 11]: > 24 h
Molecule: CC(=O)O[C@H]1C(=O)[C@@]2(C)[C@H]([C@H](OC(=O)c3ccccc3)[C@]3(O)C[C@H](OC(=O)[C@H](OC(=O)c4ccccc4S(=O)(=O)O)[C@@H](NC(=O)c4ccccc4)c4ccccc4)C(C)=C1C3(C)C)[C@]1(OC(C)=O)CO[C@@H]1C[C@@H]2O [Compound 11, 2'-(2-Sulfobenzoyl) taxol, sodium salt]

Relative Solubility (p') [9]: 166
Stabilities at pH 5 [8, 11]: > 24 h
Molecule: CC(=O)O[C@H]1C(=O)[C@@]2(C)[C@H]([C@H](OC(=O)c3ccccc3)[C@]3(O)C[C@H](OC(=O)[C@H](OC(=O)c4ccc(S(=O)(=O)O)cc4)[C@@H](NC(=O)c4ccccc4)c4ccccc4)C(C)=C1C3(C)C)[C@]1(OC(C)=O)CO[C@@H]1C[C@@H]2O [Compound 12, 2'-(4-sulfobenzoyl) taxol, sodium salt]

Molecule: CCN(CC)CCNC(=O)c1ccc(C(=O)O[C@@H](C(=O)O[C@H]2C[C@@]3(O)[C@@H](OC(=O)c4ccccc4)[C@@H]4[C@]5(OC(C)=O)CO[C@@H]5C[C@H](O)[C@@]4(C)C(=O)[C@H](OC(C)=O)C(=C2C)C3(C)C)[C@@H](NC(=O)c2ccccc2)c2ccccc2)cc1 [Compound 13b, 2'-[4-([2-(N,N-diethylamino)ethyl]aminocarbonyl)benzoyl]taxol, hydrochloride]
Stabilities at pH 5 [8, 12]: > 24 h
T/C ([2]; Z03Dx2;5, ip/ip, dose 50): 118%
T/C ([2]; Z03Dx2;5, ip/ip, dose 100): 118%
T/C ([2]; Z03Dx2;5, ip/ip, dose 200): 124%

Molecule: CC(=O)O[C@H]1C(=O)[C@]2(C)[C@@H](OC(=O)c3ccccc3C(=O)O)C[C@H]3OC[C@@]3(OC(C)=O)[C@H]2[C@H](OC(=O)c2ccccc2)[C@]2(O)C[C@H](OC(=O)[C@H](OC(=O)c3ccccc3C(=O)O)[C@@H](NC(=O)c3ccccc3)c3ccccc3)C(C)=C1C2(C)C [Compound 15, Taxol 2',7-di(sodium 1,2-benzenedicarboxylate)]
T/C ([2]; Z03Dx2;5, site/route not given, dose 15): 100%
T/C ([2]; Z03Dx2;5, site/route not given, dose 30): 103%
T/C ([2]; Z03Dx2;5, site/route not given, dose 60): 106%

Molecule: CC[C@]1(O)C[C@@H]2CN(CCc3c([nH]c4ccccc34)[C@@](C(=O)OC)(c3cc4c(cc3OC)N(C)[C@H]3[C@@](O)(C(=O)OC)[C@H](OC(C)=O)[C@]5(CC)C=CCN6CC[C@]43[C@@H]65)C2)C1 [vinblastine]
effect on microtubule / tubulin polymer formation [10]: prevent microtubule formation
